ChEMBL document CHEMBL1201862, “PubChem BioAssay data set” (2004)
Active and inactive are the calls of the source.

Legend:
[1] = target: T1, Sentrin-specific protease 8 (Homo sapiens, UniProt Q96LD8); assay type: functional
T1 sequence (Q96LD8 whole entry): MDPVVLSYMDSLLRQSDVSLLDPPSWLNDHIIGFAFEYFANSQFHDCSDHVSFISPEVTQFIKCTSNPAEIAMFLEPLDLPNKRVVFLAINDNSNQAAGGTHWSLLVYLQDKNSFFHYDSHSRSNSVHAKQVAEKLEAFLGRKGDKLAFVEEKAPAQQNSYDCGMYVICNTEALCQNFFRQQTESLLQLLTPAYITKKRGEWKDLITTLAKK

[2] = target: T1, Sentrin-specific protease 8; assay type: functional; remark: listed apart in the source
[3] = target: Glucose-6-phosphate 1-dehydrogenase (Homo sapiens, UniProt P11413); test: inhibition of Homo sapiens G6PD, dose series – biochemical, fluorescence, selectivity assay for P. falciparum G6PD inhibitor project, dose response (AID 504792); assay type: functional
Chain of Glucose-6-phosphate 1-dehydrogenase (P11413 whole entry): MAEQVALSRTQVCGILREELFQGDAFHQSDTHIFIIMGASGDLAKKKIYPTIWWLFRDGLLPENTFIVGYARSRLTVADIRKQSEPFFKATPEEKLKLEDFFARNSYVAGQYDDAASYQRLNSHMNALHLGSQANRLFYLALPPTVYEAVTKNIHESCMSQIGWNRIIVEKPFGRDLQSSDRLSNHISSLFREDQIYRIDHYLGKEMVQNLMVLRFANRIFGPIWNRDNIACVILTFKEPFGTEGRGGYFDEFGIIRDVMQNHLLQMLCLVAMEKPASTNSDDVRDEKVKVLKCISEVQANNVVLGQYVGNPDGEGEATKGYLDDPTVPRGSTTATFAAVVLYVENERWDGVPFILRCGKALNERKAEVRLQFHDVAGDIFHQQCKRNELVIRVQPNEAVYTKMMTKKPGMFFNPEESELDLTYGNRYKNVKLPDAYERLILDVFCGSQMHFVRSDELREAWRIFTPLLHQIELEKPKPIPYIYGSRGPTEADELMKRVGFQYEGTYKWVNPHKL

HEK293 [4] = test: NOD2 signaling inhibitors in MDP-stimulated cells, cell-based, uHTS, luminescence (AID 2001); assay type: functional; conditions: Homo sapiens
HEK293 [5] = test: cells; conditions: Homo sapiens
HEK293 [6] = test: cells; assay type: functional, cell-based; conditions: Homo sapiens
HEK293 [7] = test: inhibition of NOD1-driven NF-kB reporter – cell-based, luminescence, uHTS, primary screen (AID 1578); assay type: functional; conditions: Homo sapiens
HEK293 [8] = test: cells; assay type: functional, cell-based; conditions: Homo sapiens; remark: listed apart in the source
[9] = target: T2, Nucleotide-binding oligomerization domain-containing protein 1 (Homo sapiens, UniProt Q9Y239); test: blockers of NOD1 pathway activity – revised, SAR follow-up (AID 2333); assay type: functional
T2 sequence (Q9Y239 whole entry): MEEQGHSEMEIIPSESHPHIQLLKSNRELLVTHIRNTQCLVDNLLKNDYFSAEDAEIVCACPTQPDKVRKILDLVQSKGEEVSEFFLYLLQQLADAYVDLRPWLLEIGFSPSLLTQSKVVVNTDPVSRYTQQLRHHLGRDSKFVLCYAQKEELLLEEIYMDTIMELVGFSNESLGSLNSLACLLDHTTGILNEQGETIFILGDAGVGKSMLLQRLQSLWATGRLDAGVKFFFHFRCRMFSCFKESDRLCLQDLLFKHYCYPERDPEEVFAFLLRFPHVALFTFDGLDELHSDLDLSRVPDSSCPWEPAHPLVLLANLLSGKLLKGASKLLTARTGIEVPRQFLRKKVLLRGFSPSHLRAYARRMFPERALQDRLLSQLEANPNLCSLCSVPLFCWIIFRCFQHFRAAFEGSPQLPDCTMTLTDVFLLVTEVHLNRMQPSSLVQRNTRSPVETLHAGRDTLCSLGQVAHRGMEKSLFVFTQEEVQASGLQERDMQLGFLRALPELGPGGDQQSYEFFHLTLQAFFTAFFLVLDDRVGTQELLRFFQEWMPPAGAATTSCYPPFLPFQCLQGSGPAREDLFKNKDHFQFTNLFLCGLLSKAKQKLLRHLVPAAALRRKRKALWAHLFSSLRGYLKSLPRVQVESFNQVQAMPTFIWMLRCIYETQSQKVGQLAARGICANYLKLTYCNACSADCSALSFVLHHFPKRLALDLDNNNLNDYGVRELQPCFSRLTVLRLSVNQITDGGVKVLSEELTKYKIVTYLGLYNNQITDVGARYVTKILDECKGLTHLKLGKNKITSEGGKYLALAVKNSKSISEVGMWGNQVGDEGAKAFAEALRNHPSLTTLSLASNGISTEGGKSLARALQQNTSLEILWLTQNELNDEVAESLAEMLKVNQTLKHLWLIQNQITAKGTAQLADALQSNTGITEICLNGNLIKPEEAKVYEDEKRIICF

Tumor necrosis factor = Tumor necrosis factor (Homo sapiens, UniProt P01375); test: analog potency on TNFa NF-kB signaling – cell-based, revised, SAR follow-up (AID 2337); assay type: functional
Chain of Tumor necrosis factor (P01375 whole entry): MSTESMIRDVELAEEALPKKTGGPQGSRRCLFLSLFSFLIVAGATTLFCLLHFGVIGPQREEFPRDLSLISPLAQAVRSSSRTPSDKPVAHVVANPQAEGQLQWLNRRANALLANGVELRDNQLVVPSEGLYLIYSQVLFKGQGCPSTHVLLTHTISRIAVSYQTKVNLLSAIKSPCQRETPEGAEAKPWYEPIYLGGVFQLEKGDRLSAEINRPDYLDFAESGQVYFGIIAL

[10] = target: T3, Microphthalmia-associated transcription factor (Homo sapiens, UniProt O75030); test: reducers of TRPM1 reporter luminescence, concentration series – cell-based, SK-MEL-5, cherry-picked, set 3, MITF inhibitor project, dose response (AID 493073); assay type: functional;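 further: SK-MEL-5 melanoma cells with luciferase driven by the MITF target TRPM1 promoter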
T3 sequence (O75030 whole entry): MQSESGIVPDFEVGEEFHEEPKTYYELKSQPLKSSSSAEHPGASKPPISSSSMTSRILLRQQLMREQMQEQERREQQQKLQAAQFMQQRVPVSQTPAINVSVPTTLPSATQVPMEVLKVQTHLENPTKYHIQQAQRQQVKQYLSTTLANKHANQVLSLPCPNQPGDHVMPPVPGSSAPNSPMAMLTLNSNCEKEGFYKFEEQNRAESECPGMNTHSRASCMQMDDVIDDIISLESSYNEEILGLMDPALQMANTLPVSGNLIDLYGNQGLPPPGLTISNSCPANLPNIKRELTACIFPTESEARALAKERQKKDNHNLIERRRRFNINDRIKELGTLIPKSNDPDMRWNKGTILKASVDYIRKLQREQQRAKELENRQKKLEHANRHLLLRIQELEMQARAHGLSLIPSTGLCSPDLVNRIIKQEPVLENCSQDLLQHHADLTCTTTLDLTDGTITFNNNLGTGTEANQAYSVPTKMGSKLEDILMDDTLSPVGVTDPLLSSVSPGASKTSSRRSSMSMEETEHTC

Vero = test: cells; assay type: functional; conditions: Chlorocebus sabaeus
[11] = target: Heat shock protein HSP 90-alpha (Homo sapiens, UniProt P07900); assay type: functional, organism-based
[12] = activation of miR-122 Renilla sensor silencing – cell-based, Huh7 psiCHECK-miR122, Renilla luciferase, cherry-picked, dose response (AID 651956); assay type: functional;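 further: huh7 hepatoma cells stably carrying a psiCHECK-2 miR-122 sensor plasmid; renilla luciferase signal reporting endogenous miR-122 activity after 48 h compound exposure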
[13] = target: T4, Heat shock factor protein 1 (Mus musculus, UniProt P38532); test: decrease of HSF1-responsive luciferase luminescence – cell-based, NIH3T3, dose retest, confirmation (AID 2382); assay type: functional;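 further: NIH3T3 fibroblasts with HSF1-driven luciferase reporter stressed by proteasome inhibitor MG132; luminescence from HSF1-driven luciferase expression after 8 hours of MG132 stress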
T4 sequence (P38532 whole entry): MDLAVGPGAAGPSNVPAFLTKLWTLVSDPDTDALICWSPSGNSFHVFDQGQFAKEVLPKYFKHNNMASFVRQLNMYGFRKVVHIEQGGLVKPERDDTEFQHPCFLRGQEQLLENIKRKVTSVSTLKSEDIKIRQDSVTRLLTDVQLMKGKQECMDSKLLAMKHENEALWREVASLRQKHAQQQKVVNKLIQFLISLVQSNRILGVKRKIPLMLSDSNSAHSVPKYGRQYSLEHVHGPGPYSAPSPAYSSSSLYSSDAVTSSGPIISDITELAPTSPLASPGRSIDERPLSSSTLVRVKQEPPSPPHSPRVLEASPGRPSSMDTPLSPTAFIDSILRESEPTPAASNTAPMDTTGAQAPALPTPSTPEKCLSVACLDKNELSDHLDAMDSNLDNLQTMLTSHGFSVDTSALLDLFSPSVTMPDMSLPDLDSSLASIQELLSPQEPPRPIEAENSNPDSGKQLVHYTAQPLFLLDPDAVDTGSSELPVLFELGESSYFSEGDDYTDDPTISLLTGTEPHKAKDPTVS

[14] = Trypanosoma cruzi growth suppression in host cells – NIH3T3 host cells, beta-gal luminescence, confirmation (AID 2044); assay type: functional, cell-based;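 further: intracellular parasites grown in NIH/3T3 mouse fibroblasts as host cells; luminescent beta-galactosidase reporter signal from transgenic T. cruzi replicating inside host cells; inhibitors lower the luminescence signal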
[15] = NIH3T3 cell viability loss – ATP luminescence, mouse fibroblasts, counter-screen, dose response (AID 2010); assay type: functional, cell-based;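 further: cells exposed to compound for about 90 hours before reading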
cells = assay type: functional

Structure (SMILES): Cc1ccc(C)c(N/C([S-])=C(/C(=O)c2ccc(Cl)s2)[n+]2ccccc2)c1
- IC50 [1]: 5.82 µM (active)
- IC50 [2]: 9.94 µM (active)

Structure (SMILES): COC(=O)CCCC1=CC2=CC(=O)C(C)(OC(=O)c3cccs3)C(=O)C2=CN1CCCCO (stereo not given)
- IC50 [1]: 5.99 µM (active)
- IC50 [2]: 7.79 µM (active)

Structure (SMILES): CCn1c(=O)n(CC)c2cc(N3CCCC3)c(NC(=O)c3cccc(C)c3)cc21
- IC50 [3]: > 80 µM (inactive)

Structure (SMILES): COc1ccc(CNS(=O)(=O)c2ccc3c(c2)CC(C)N3C(=O)C2CC2)cc1 (stereo not given)
- IC50 (HEK293 [4]): 12.5 µM (inactive)
- IC50 (HEK293 [5]): > 20 µM (inactive)
- IC50 (HEK293 [6]): 14.8 µM (active)
- EC50 (HEK293 [7]): 3.88 µM (active)
- IC50 (HEK293 [8]): 7.96 µM (active)
- IC50 [9]: 13.1 µM (active)
- IC50 (Tumor necrosis factor): > 20 µM (inactive)

Structure (SMILES): O=[N+]([O-])/C=C\c1ccc(N2CCCC2)c(F)c1
- AC50 [10]: 13.4 µM (active)
- CC50 (Vero): 18.6 µM (active)
- AC50 [11]: 8.22 µM (active)

Structure (SMILES): COc1ccccc1CN1CCC(CNS(=O)(=O)c2cc(-c3cc(C)no3)ccc2OC)CC1
- CC50 (Vero): > 25 µM (active)

Structure (SMILES): CCOc1ccccc1NC(=O)CCCc1nc(O)c2ccccc2n1
- IC50 [3]: 71.7 µM (inactive)

Structure (SMILES): O=C(CNCCC1=CCCCC1)Nc1ccccc1N1CCCCCC1
- AC50 [12]: 2.54 µM (active)

Structure (SMILES): Cc1ccc2c(c1)C1CN(C)CCC1N2C(=O)Nc1cccc(C(F)(F)F)c1 (stereo not given)
- CC50 (Vero): > 25 µM (active)
- EC50 [13]: > 195 µM (not active)

Structure (SMILES): CCNc1cc2c(cc1O)CCC1C2CCC2(C)C(O)CCC12 (stereo not given)
- IC50 [3]: > 80 µM (inactive)

Structure (SMILES): C/C=C/c1ccc2c(c1)O[C@H](CN(C)C(=O)Cc1cccnc1)[C@H](C)CN([C@H](C)CO)S2(=O)=O
- AC50 [12]: 10.7 µM (active)

Structure (SMILES): CNC(=O)C[C@@H]1CC[C@@H]2[C@@H](COc3ccc(NC(=O)c4cccc(OC)c4)cc3C(=O)N2C)O1
- AC50 [12]: 67.7 µM (active)

Structure (SMILES): O=C(Nc1ccccc1N1CCCC1)c1ccc([N+](=O)[O-])o1
- EC50 [14]: 0.105 µM (active)
- IC50 [1]: 66.9 µM (inactive)
- EC50 [15]: 13.5 µM (active)
- IC50 [2]: 31.3 µM (active)

Structure (SMILES): CCOc1ccc2ccccc2c1/C=N/NC(=O)c1ccncc1
- IC50 [3]: 27.1 µM (inactive)
- IC50 (cells): 0.21 µM (active)

Structure (SMILES): COC1=CC(=O)C=C(OC)C1(O)CC(C)=O
- IC50 [3]: 54.3 µM (inactive)
